{
  "source": "paper PMC3429506",
  "about": "“Screening for Novel LRRK2 Inhibitors Using a High-Throughput TR-FRET Cellular Assay for LRRK2 Ser935 Phosphorylation” (PLoS ONE, 2012)",
  "key": {"LRRK2 wild-type [1]": {"molecular_target": "T1, LRRK2 wild-type (Homo sapiens, UniProt Q5S007)", "T1 sequence (Q5S007 whole entry)": "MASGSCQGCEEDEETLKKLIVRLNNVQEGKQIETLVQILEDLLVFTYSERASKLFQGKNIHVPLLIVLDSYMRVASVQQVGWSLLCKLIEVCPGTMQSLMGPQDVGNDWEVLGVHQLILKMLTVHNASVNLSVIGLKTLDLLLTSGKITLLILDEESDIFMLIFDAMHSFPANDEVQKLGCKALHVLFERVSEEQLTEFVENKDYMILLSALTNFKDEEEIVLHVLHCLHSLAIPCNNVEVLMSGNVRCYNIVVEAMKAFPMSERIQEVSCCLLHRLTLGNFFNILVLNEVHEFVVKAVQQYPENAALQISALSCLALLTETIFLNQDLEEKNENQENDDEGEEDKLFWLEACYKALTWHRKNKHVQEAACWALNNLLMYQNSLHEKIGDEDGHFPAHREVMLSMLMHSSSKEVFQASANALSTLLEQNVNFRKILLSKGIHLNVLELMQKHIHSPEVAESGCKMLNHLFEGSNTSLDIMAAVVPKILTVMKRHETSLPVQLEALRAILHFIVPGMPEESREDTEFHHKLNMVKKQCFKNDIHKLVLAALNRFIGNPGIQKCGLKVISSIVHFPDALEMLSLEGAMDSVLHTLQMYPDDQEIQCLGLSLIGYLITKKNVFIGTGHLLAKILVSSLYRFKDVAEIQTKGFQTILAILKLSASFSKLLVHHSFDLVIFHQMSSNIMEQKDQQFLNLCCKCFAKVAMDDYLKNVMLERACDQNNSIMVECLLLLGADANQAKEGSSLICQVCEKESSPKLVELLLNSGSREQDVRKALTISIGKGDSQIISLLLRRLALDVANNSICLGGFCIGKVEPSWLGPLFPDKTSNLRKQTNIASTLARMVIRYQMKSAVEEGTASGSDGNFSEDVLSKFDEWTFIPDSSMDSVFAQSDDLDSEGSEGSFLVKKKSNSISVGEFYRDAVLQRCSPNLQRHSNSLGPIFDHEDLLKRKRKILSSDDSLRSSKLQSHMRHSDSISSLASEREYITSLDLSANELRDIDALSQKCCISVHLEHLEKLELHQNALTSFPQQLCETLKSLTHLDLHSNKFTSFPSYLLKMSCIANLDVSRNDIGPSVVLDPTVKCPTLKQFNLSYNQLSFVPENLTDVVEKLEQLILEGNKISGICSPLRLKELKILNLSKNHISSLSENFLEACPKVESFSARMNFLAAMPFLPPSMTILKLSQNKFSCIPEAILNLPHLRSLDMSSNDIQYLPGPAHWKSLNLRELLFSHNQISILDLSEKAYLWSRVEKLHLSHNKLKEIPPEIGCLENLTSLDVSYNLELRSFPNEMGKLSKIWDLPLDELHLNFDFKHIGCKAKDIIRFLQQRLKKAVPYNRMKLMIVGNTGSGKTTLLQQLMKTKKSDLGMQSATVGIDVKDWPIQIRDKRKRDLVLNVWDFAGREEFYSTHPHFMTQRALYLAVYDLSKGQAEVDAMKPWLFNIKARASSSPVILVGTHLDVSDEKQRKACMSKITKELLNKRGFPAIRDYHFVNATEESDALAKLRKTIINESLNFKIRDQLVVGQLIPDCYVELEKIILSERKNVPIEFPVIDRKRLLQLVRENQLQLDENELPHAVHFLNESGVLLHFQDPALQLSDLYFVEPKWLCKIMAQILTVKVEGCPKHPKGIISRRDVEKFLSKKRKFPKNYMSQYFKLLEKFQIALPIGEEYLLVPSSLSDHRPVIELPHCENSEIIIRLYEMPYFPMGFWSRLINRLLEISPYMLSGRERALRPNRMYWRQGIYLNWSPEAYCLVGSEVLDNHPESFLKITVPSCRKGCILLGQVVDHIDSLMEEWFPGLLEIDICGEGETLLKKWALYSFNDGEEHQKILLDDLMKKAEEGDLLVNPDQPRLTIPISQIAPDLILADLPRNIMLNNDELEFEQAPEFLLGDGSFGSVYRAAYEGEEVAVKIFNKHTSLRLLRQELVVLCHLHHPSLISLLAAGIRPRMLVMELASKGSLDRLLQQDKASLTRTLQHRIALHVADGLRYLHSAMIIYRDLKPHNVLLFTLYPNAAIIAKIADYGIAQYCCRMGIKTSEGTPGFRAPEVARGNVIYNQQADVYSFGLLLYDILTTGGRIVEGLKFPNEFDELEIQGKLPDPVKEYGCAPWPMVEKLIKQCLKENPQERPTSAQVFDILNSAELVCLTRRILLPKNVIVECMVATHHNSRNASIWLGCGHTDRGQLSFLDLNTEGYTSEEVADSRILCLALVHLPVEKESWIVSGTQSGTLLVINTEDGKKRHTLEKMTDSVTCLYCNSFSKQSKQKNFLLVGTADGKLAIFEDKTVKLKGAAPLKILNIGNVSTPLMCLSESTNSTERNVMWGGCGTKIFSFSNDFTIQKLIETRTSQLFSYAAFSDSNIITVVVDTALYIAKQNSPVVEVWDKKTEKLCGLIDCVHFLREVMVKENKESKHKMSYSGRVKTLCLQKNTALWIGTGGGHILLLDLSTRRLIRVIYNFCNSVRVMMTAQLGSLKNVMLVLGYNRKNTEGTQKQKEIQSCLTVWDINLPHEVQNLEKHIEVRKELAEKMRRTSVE", "assay": "TR-FRET cellular assay for LRRK2 Ser935 phosphorylation, U-2 OS cells, BacMam LRRK2-GFP wild-type", "type": "cell-based", "parameters": "This high-throughput assay utilizes cells expressing full-length human LRRK2 with a C-terminal GFP tag (LRRK2-GFP); host or cells: U-2 OS cells transduced with BacMam", "method": "(§1) U-2 OS cells are maintained in growth medium (McCoy’s 5A supplemented with 10% dialyzed FBS (dFBS), 10 mM HEPES, 0.1 mM NEAA, 1 mM Sodium Pyruvate, and 100 U/mL Penicillin/100 µg/mL Streptomycin). HEK293T cells are maintained in DMEM with 10% dFBS, 10 mM HEPES, 0.1 mM NEAA and 100 U/mL Penicillin/100 µg/mL Streptomycin. SH-SY5Y cells are maintained in DMEM/F-12 medium supplemented with 10% dFBS and 100 U/mL Penicillin/100 µg/mL Streptomycin. […] GIBCO® human neural stem cells (hNSCs) were propagated as an adherent culture in StemPro® NSC SFM according to the manufacturer’s recommended protocol (Life Technologies). For BacMam transduction of U-2 OS and HEK293T, cells were harvested, mixed with various amounts of BacMam LRRK2-GFP reagent (v/v) and plated onto 6-well plates. […] Cells were assayed in 384-well format (∼20,000 cells/well) 48 hours post-transduction as above.\n(§2) Transduced cells in the 384-well assay plate were incubated with indicated inhibitors (5X, 5 µL/well) for 60 to 90 minutes. During this time, 6 X lysis buffer (Life Technologies) was supplemented with 30 nM Tb-labeled anti-LRRK2 pSer935 antibody and both protease and phosphatase inhibitor cocktails (Sigma). The complete 6 X lysis buffer was added to each well (5 µL/well) and the plates were incubated at room temperature in the dark for 2 hours. […] A sigmoidal dose-response equation with varying slope was used to fit the data and generate IC50 values. Z′-factor values were calculated as: Z′-factor = 1 - [(3 × stdevno virus +3 × stdevmaxvirus)/(avgmaxvirus – avgno-virus)]. The IC50 values reported in Table 1 are the averaged numbers from three independent experiments."}, "LRRK2-GFP": {"system": "LRRK2-GFP", "assay": "Fluorescence microscopy of LRRK2-GFP localization in U-2 OS cells", "type": "cell-based, human", "details": "3 µM 90 min, Figure 1A", "method": "U-2 OS cells were transduced with BacMam LRRK2-GFP as described above. The cells were then plated on chambered coverslips (LabTek II/Nunc, Rochester, NY) at 50% confluency and incubated for 48 hours. The growth medium was replaced with phenol-red free DMEM® (Life Technologies, Carlsbad, CA) before live imaging. Cells were imaged under the same conditions for each mutant using an inverted microscope (Nikon Eclipse TE2000-S) equipped with a PlanApo 60X objective and a charge-coupled device camera (Diagnostic Instruments SPOT RT 2.3.0) using SPOT Advanced software."}, "GFP-LRRK2 G2019S": {"molecular_target": "T2, GFP-LRRK2 G2019S (Homo sapiens, UniProt Q5S007, G2019S)", "T2 construct": "expressed in transfected cells", "T2 sequence (Q5S007 whole entry G2019S)": "as the sequence (Q5S007 whole entry) above, with G2019S counted along it", "assay": "Immunoprecipitation/Western analysis of LRRK2 phosphorylation at Ser910, Ser935, Ser955, Ser973 in HEK293 T-REx GFP-LRRK2 G2019S cells", "type": "cell-based", "details": "20 µM, 90 min, HEK293 GFP-LRRK2 G2019S, Figure 6", "method": "(§3) Immunoblot analysis: BacMam LRRK2-GFP transduced U-2 OS or SH-SY5Y cells (10^7 cells) were left untreated or treated with 3 µM LRRK2-IN-I for 90 min. For lysate preparation, the cells were washed once with ice-cold PBS and lysed by addition of ice-cold lysis buffer (20 mM Tris-HCl, pH 7.4, 1% NP-40, 5 mM EDTA, 5 mM NaF, 150 mM NaCl, and 1∶100 of protease and phosphatase inhibitor cocktails). The lysate was cleared of debris by centrifugation. Equal amount of total protein was loaded onto each lane for SDS-PAGE (3–8% Tris Acetate). The proteins were transferred onto nitrocellulose membrane using the iBLOT® dry blotting system (Life Technologies) according to manufacturer’s protocol. The membranes were blocked and incubated with a primary antibody against LRRK2 (Cell Signaling Technologies), followed by incubation with alkaline phosphatase-conjugated secondary antibody (WesternBreeze® chromogenic Kit, Life Technologies). The blot was developed by using the chromogenic BCIP/NBT substrate (WesternBreeze® chromogenic Kit, Life Technologies). […] Two days post induction, cells were treated for 90 minutes in the presence of 20 µM of compound or DMSO vehicle control. Cells were rapidly lysed in ice cold lysis buffer 50 mM Tris/HCl, pH 7.5, 1 mM EGTA, 1 mM EDTA, […] 1 mM sodium orthovanadate, 10 mM sodium beta-glycerolphosphate, 50 mM NaF, 5 mM sodium pyrophosphate, 0.27 M sucrose, 1 mM benzamidine and 2 mM phenylmethanesulphonylfluoride (PMSF) and one tablet each complete protease inhibitor and PhosSTOP phosphatase inhibitor (Roche) and was supplemented with 1% (v/v) Triton X-100. GFP-LRRK2 was immunoprecipitated with GFP nanotrap beads (ChromoTek). Immunecomplexes were washed twice with lysis buffer supplemented with 300 mM NaCl and once with Buffer A (50 mM Tris/HCl, pH 7.5, 50 mM NaCl, 0.1 mM EGTA and 0.1% (v/v) 2-mercaptoethanol, and 0.27 M sucrose)."}, "LRRK2 wild-type [2]": {"molecular_target": "T1, LRRK2 wild-type", "assay": "TR-FRET cellular assay for LRRK2 Ser935 phosphorylation, SH-SY5Y cells, BacMam LRRK2-GFP wild-type", "type": "cell-based", "parameters": "This high-throughput assay utilizes cells expressing full-length human LRRK2 with a C-terminal GFP tag (LRRK2-GFP); host or cells: SH-SY5Y cells transduced with BacMam", "method": "as §1, §2"}, "LRRK2 A2016T/G2019S": {"molecular_target": "T3, LRRK2 A2016T/G2019S (Homo sapiens, UniProt Q5S007, A2016T/G2019S)", "T3 construct": "expressed in transfected cells", "T3 sequence (Q5S007 whole entry A2016T/G2019S)": "as the sequence (Q5S007 whole entry) above, with A2016T, G2019S counted along it", "assay": "Immunoprecipitation/Western analysis of LRRK2 phosphorylation in T-REx HEK293 cells expressing inhibitor desensitizing mutant", "type": "cell-based", "details": "20 µM, Figure 6 IRM", "method": "as §3"}, "[3]": {"assay": "Cytotoxicity assay (resazurin-based cell viability)", "details": "human"}, "[4]": {"details": "WT, +/- SD, three independent experiments, * = partial inhibition, read-out: IC50, TR-FRET cell-based assay for Ser935 phosphorylation of LRRK2"}},
  "data": [
    {"smiles": "COc1cc(C(=O)N2CCC(N3CCN(C)CC3)CC2)ccc1Nc1ncc2c(n1)N(C)c1ccccc1C(=O)N2C", "note": "[LRRK2-IN-1]", "values": [
      {"measurement": "IC50", "setting": "LRRK2 wild-type [1]; 20% BacMam wild-type, 90 min, Figure 2B, read-out: IC50, inhibition of TR-FRET signal (Ser935 phosphorylation)", "result": 80, "unit": "nM"},
      {"measurement": "IC50", "setting": "LRRK2 wild-type [1]; [4]", "result": 90, "unit": "nM"},
      {"measurement": "LRRK2-GFP cellular localization", "setting": "LRRK2-GFP", "result": "relocalization of the wild-type, G2019S and R1441C to more fibrillar-like structures"},
      {"measurement": "effect on phosphorylation of Ser910, Ser935, Ser955 and Ser973 (IP-Western)", "setting": "GFP-LRRK2 G2019S", "result": "inhibited phosphorylation of Ser910, Ser935, Ser955 and Ser973"},
      {"measurement": "IC50", "setting": "LRRK2 wild-type [2]; 25% BacMam wild-type, 90 min, Figure 3C, read-out: IC50, inhibition of TR-FRET signal (Ser935 phosphorylation)", "result": 170, "unit": "nM"},
      {"measurement": "IC50", "setting": "LRRK2 wild-type [2]; [4]", "result": 200, "unit": "nM"},
      {"measurement": "effect of desensitizing mutation A2016T/G2019S on compound-induced dephosphorylation (IP-Western)", "setting": "LRRK2 A2016T/G2019S", "result": "rescued phosphorylation"},
      {"measurement": "IC50", "setting": "[3]", "result": "> 20", "unit": "µM"}
    ]}
  ]
}
